Values quoted from earlier work in patent US20040248979A1, “Method of treating lower urinary tract disorders” (DYNOGEN PHARMACEUTICALS, INC., priority 2003, published 2004).

Legend:
[1] = system: α2δ subunits of calcium channels
[2] = preclinical and clinical studies

COc1cccc([C@]2(O)CCCC[C@H]2CN(C)C)c1 (racemic) [Tramadol, (+/−)cis-2-[(dimethylamino)methyl]-1-(3-methoxyphenyl) cyclohexanol]
affinity for opioid receptors (opioid receptors): low affinity

NCC1(CC(=O)O)CCCCC1 [Gabapentin, 1-(aminomethyl) cyclohexaneacetic acid]
binding affinity for calcium channel subunits [1]: high binding affinity

CC(C)C[C@H](CN)CC(=O)O [Pregabalin, (3S)-3-(aminomethyl)-5-methylhexanoic acid]
binding affinity for calcium channel subunits [1]: even higher binding affinity for certain α2δ subunits of calcium channels than gabapentin

CC(OC(=O)NCC1(CC(=O)O)CCCCC1)OC(=O)C(C)C (centres unmarked) [XP13512]
blood levels of gabapentin across oral doses ([2]; broad range of oral doses): dose proportional blood levels of gabapentin | absorption from the large intestine [2]: absorbed efficiently from the large intestine
